Data taken from patent US9271960B2, “Tetrahydrocarbazoles as active agents for inhibiting VEGF production by translational control” (PTC Therapeutics, Inc., priority 2004, dated 2016).
Where a name gives a salt, the structure may show the parent alone.

What follows are compounds tested on VEGF (assay: Hypoxia-inducible endogenous VEGF expression ELISA in HeLa cells). Details: Homo sapiens, HeLa, compounds 1-155, hypoxic conditions (1% O2), VEGF protein by ELISA, read-out: ELISA Activity.
Assay type: cell-based
Description: The ability of compounds of the invention to modulate hypoxia-inducible endogenous VEGF expression is analyzed as follows. VEGF protein levels are monitored by an ELISA assay (R&D Systems). Briefly, HeLa cells are cultured for 24-48 hours under hypoxic conditions (1% O2, 5% CO2, balanced with nitrogen) in the presence or absence of a compound of the invention. The conditioned media is then assayed by ELISA, and the concentration of VEGF is calculated from the standard ELISA curve of each assay.
A dose-response analysis is performed using the ELISA assay and conditions described above. A series of different concentrations (e.g., seven) are analyzed. In parallel, a dose-response cytotoxicity assay is performed using Cell Titer Glo (Promega) under the same conditions as the ELISA to ensure that the inhibition of VEGF expression is not due to cytotoxicity. Dose-response curves are plotted using percentage inhibition versus concentration of the compound, and EC50 and CC50 values are generated for each compound with the maximal inhibition set as 100% and the minimal inhibition as 0%.
Compounds 156-188 in Table 1 are commercially available. In Table 1, each of the represented compounds is followed by one to five stars.
In the case of Clc1ccc(NC2CCCc3c2[nH]c2ccc(Cl)cc32)cc1 (centres unmarked) [Compound 135, (4-Chloro-phenyl)-(6-chloro-2,3,4,9-tetrahydro-1H-carbazol-1-yl)-amine], the EC50 is reported as 10 to 40 nM. O=C(NC1CCCc2c1[nH]c1ccc(Cl)cc21)c1ccco1 (centres unmarked) [Compound 144, Furan-2-carboxylic acid (6-chloro-2,3,4,9-tetrahydro-1H-carbazol-1-yl)-amide] showed an EC50 of 40 to 200 nM. In the case of Brc1ccc2[nH]c3c(c2c1)CCCC3N1Cc2ccccc2C1 (centres unmarked) [Compound 7, 6-Bromo-1-(1,3-dihydro-isoindol-2-yl)-2,3,4,9-tetrahydro-1H-carbazole], the EC50 is reported as < 10 nM. FC(F)(F)Oc1ccc2[nH]c3c(c2c1)CCCC3Nc1ccccc1 (centres unmarked) [Compound 34, Phenyl-(6-trifluoromethoxy-2,3,4,9-tetrahydro-1H-carbazol-1-yl)-amine] showed an EC50 of 10 to 40 nM. Clc1ccccc1NC1CCCc2c1[nH]c1ccc(Br)cc21 (centres unmarked) [Compound 29, (6-Bromo-2,3,4,9-tetrahydro-1H-carbazol-1-yl)-(2-chloro-phenyl)-amine] showed an EC50 of 10 to 40 nM. In the case of Brc1ccc2[nH]c3c(c2c1)CCCC3NCCCn1ccnc1 (centres unmarked) [Compound 114, (6-Bromo-2,3,4,9-tetrahydro-1H-carbazol-1-yl)-(3-imidazol-1-yl-propyl)-amine], the EC50 is reported as > 1000 nM. COc1ccccc1NC1CCCc2c1[nH]c1ccc(Br)cc21 (centres unmarked) [Compound 45, (6-Bromo-2,3,4,9-tetrahydro-1H-carbazol-1-yl)-(2-methoxy-phenyl)-amine] was tested, and the EC50 was 40 to 200 nM. For CCOC(=O)C1CCCc2c1[nH]c1ccc(Br)cc21 (centres unmarked) [Compound 90, 6-Bromo-2,3,4,9-tetrahydro-1H-carbazole-1-carboxylic acid ethyl ester], the EC50 was > 1000 nM. For NC1CCCc2c1[nH]c1cc(Br)ccc21 (centres unmarked) [Compound 94, 7-Bromo-2,3,4,9-tetrahydro-1H-carbazol-1-ylamine; compound with methane], the EC50 was > 1000 nM. Work on Fc1cccc(NC2CCCc3c2[nH]c2ccc(Br)cc32)c1F (centres unmarked) [Compound 32, (6-Bromo-2,3,4,9-tetrahydro-1H-carbazol-1-yl)-(2,3-difluoro-phenyl)-amine] yielded an EC50 of 10 to 40 nM. NC(=O)c1ccc2[nH]c3c(c2c1)CCCC3n1cccc1 (centres unmarked) [Compound 119, 8-Pyrrol-1-yl-6,7,8,9-tetrahydro-5H-carbazole-3-carboxylic acid amide] was tested, and the EC50 was > 1000 nM. With O=C(NC1CCCc2c1[nH]c1ccc(Br)cc21)c1ccc(Cl)s1 (centres unmarked) [Compound 154, 5-Chloro-thiophene-2-carboxylic acid (6-bromo-2,3,4,9-tetrahydro-1H-carbazol-1-yl)-amide] the EC50 was < 10 nM. For Brc1ccc2[nH]c3c(c2c1)CCCC3NCCN1CCOCC1 (centres unmarked) [Compound 122, (6-Bromo-2,3,4,9-tetrahydro-1H-carbazol-1-yl)-(2-morpholin-4-yl-ethyl)-amine], the EC50 was > 1000 nM. Brc1ccc2[nH]c3c(c2c1)CCCC3n1ccc(CN2CCOCC2)c1 (centres unmarked) [Compound 64, 6-Bromo-1-(3-morpholin-4-ylmethyl-pyrrol-1-yl)-2,3,4,9-tetrahydro-1H-carbazole] was tested, and the EC50 was 200 to 1000 nM. O=C(NC1CCCc2c1[nH]c1ccc(Br)cc21)c1cc2ccccc2o1 (centres unmarked) [Compound 124, Benzofuran-2-carboxylic acid (6-bromo-2,3,4,9-tetrahydro-1H-carbazol-1-yl)-amide] was tested, and the EC50 was 200 to 1000 nM. In the case of Brc1ccc2[nH]c3c(c2c1)CCCC3c1nc2ccccc2o1 (centres unmarked) [Compound 129, 1-Benzooxazol-2-yl-6-bromo-2,3,4,9-tetrahydro-1H-carbazole], the EC50 is reported as < 10 nM. In the case of O=C(NC1CCCc2c1[nH]c1ccc(Br)cc21)c1ccc(Oc2ccccc2)cc1 (centres unmarked) [Compound 35, N-(6-Bromo-2,3,4,9-tetrahydro-1H-carbazol-1-yl)-4-phenoxy-benzamide], the EC50 is reported as 40 to 200 nM. Work on O=C(NC1CCCc2c1[nH]c1ccc(Br)cc21)c1ccc[nH]1 (centres unmarked) [Compound 126, 1H-Pyrrole-2-carboxylic acid (6-bromo-2,3,4,9-tetrahydro-1H-carbazol-1-yl)-amide] yielded an EC50 of 40 to 200 nM. With Cc1ccc2[nH]c3c(c2c1)CCCC3Nc1ccccc1 (centres unmarked) [Compound 11, (6-Methyl-2,3,4,9-tetrahydro-1H-carbazol-1-yl)-phenyl-amine] the EC50 was < 10 nM. In the case of Cc1cc(C(=O)NC2CCCc3c2[nH]c2ccc(Br)cc32)no1 (centres unmarked) [Compound 151, 5-Methyl-isoxazole-3-carboxylic acid (6-bromo-2,3,4,9-tetrahydro-1H-carbazol-1-yl)-amide], the EC50 is reported as 10 to 40 nM. In the case of O=C1CCCc2c1[nH]c1ccc(C(F)(F)F)cc21 [Compound 60, 6-Trifluoromethyl-2,3,4,9-tetrahydro-carbazol-1-one], the EC50 is reported as 200 to 1000 nM. Compound O=C(NC1CCCc2c1[nH]c1ccc(Br)cc21)c1ccoc1 (centres unmarked) [Compound 152, Furan-3-carboxylic acid (6-bromo-2,3,4,9-tetrahydro-1H-carbazol-1-yl)-amide] has an EC50 of 200 to 1000 nM. For c1ccc2c3c([nH]c2c1)C(Nn1cccc1)CCC3 (centres unmarked) [Compound 101, Pyrrol-1-yl-(2,3,4,9-tetrahydro-1H-carbazol-1-yl)-amine], the EC50 was > 1000 nM. With O=C1c2sccc2CN1C1CCCc2c1[nH]c1ccc(Cl)cc21 (centres unmarked) [Compound 148, 5-(6-Chloro-2,3,4,9-tetrahydro-1H-carbazol-1-yl)-4,5-dihydro-thieno[2,3-c]pyrrol-6-one] the EC50 was < 10 nM. N#Cc1ccc(C(=O)NC2CCCc3c2[nH]c2ccc(Br)cc32)cc1 (centres unmarked) [Compound 132, N-(6-Bromo-2,3,4,9-tetrahydro-1H-carbazol-1-yl)-4-cyano-benzamide] showed an EC50 of 10 to 40 nM. NC1CCCc2c1[nH]c1c(Br)cccc21 (centres unmarked) [Compound 99, 8-Bromo-2,3,4,9-tetrahydro-1H-carbazol-1-ylamine] was tested, and the EC50 was > 1000 nM. Cn1cccc1C(=O)NC1CCCc2c1[nH]c1ccc(Br)cc21 (centres unmarked) [Compound 155, 1-Methyl-1H-pyrrole-2-carboxylic acid (6-bromo-2,3,4,9-tetrahydro-1H-carbazol-1-yl)-amide] was tested, and the EC50 was 10 to 40 nM.

Same assay, conditions: Homo sapiens, HeLa, compounds 191-239, hypoxic conditions, VEGF protein by ELISA, read-out: ELISA Activity EC50
Work on COCCN(CCCOc1ccc(C2CCCc3c2[nH]c2ccc(Br)cc32)cc1)CCOC (centres unmarked) [Compound 205] yielded an EC50 of 10 to 40 nM. For Cc1ccc(C2c3[nH]c4ccc(Br)cc4c3CCC2O)cc1 (centres unmarked) [Compound 237], the EC50 was 200 to 1000 nM. In the case of OC1CCc2c([nH]c3ccc(Br)cc23)C1c1ccc(F)cc1 (centres unmarked) [Compound 239], the EC50 is reported as < 10 nM. With OC1CCc2c([nH]c3ccc(Br)cc23)C1c1ccccc1 (centres unmarked) [Compound 236] the EC50 was 40 to 200 nM. With COCCN(CCOC)CC(O)COc1ccc(C2CCCc3c2[nH]c2ccc(Br)cc32)cc1 (centres unmarked) [Compound 198] the EC50 was < 10 nM. In the case of OC(COc1ccc(C2CCCc3c2[nH]c2ccc(Br)cc32)cc1)CN1CCSCC1 (centres unmarked) [Compound 199], the EC50 is reported as < 10 nM. COCCN(C)CCCOc1ccc(C2CCCc3c2[nH]c2ccc(Br)cc32)cc1 (centres unmarked) [Compound 207] was tested, and the EC50 was 10 to 40 nM. In the case of OCC(O)COc1ccc(C2CCCc3c2[nH]c2ccc(Br)cc32)cc1 (centres unmarked) [Compound 212], the EC50 is reported as < 10 nM. OC(COc1ccc(C2CCCc3c2[nH]c2ccc(Br)cc32)cc1)Cn1nccn1 (centres unmarked) [Compound 227] was tested, and the EC50 was < 10 nM. With OC(COc1ccc(C2CCCCc3c2[nH]c2ccc(Cl)cc32)cc1)CN1CCOCC1 (centres unmarked) [Compound 228] the EC50 was 10 to 40 nM. COCCN(C)CC(O)COc1ccc(C2CCCc3c2[nH]c2ccc(Cl)cc32)cc1 (centres unmarked) [Compound 218] showed an EC50 of 10 to 40 nM. With OC(COc1ccc(C2CCCc3c2[nH]c2ccc(Cl)cc32)cc1)CN1CCOCC1 (centres unmarked) [Compound 215] the EC50 was 10 to 40 nM. CC(=O)N1CCN(CCCOc2ccc(C3CCCc4c3[nH]c3ccc(Br)cc43)cc2)CC1 (centres unmarked) [Compound 204] showed an EC50 of 10 to 40 nM.

Same assay, conditions: Homo sapiens, HeLa, purchased compounds 156-188, hypoxic conditions, VEGF protein by ELISA, read-out: ELISA Activity
In the case of C1=C(c2ccc3c(c2)c2c4n3CCN(Cc3ccccc3)C4CCC2)C2CCN1CC2 (centres unmarked) [Compound 166, 8-(1-Aza-bicyclo[2.2.2]oct-2-en-3-yl)-3-benzyl-2,3,3a,4,5,6-hexahydro-1H-pyrazino[3,2,1-jk]carbazole], the EC50 is reported as > 1000 nM. With OCCNC1CCCc2c1[nH]c1ccc(Br)cc21 (centres unmarked) [Compound 168, 2-(6-Bromo-2,3,4,9-tetrahydro-1H carbazol-1-ylamino)-ethanol hydrochloride] the EC50 was > 1000 nM. With CC(=O)N1CCn2c3c(c4cc(C)ccc42)CCCC31 (centres unmarked) [Compound 175, 1-(8-Methyl-1,2,3a,4,5,6-hexahydro-pyrazino[3,2,1-jk]carbazol-3-yl)-ethanone] the EC50 was > 1000 nM. With c1ccc(CN2CCn3c4c(c5ccccc53)CCCC42)cc1 (centres unmarked) [Compound 163, 3-Benzyl2,3,3a,4,5,6-hexahydro-1H-pyrazino[3,2,1-jk]carbazole] the EC50 was > 1000 nM. In the case of Cc1ccc2c(c1)c1c3n2CCN(CC(C)O)C3CCC1 (centres unmarked) [Compound 176, 1-(8-Methyl-1,2,3a,4,5,6-hexahydro-pyrazino[3,2,1-jk]carbazoI-3-yl)-propan-2-ol], the EC50 is reported as > 1000 nM. In the case of CC(=O)N(Cc1ccccc1)C1CCCc2c1[nH]c1ccc(C)cc21 (centres unmarked) [Compound 174, N-Benzyl-N-(6-methyl-2,3,4,9-tetrahydro-1H-carbazol-1-yl)-acetamide], the EC50 is reported as > 1000 nM.

Same assay, conditions: Homo sapiens, HeLa, purchased compounds 156-188, hypoxic conditions, VEGF protein by ELISA, read-out: ELISA EC50
With C1=C(c2ccc3c(c2)c2c4n3CCN(Cc3ccccc3)C4CCC2)C2CCN1CC2 (centres unmarked) [Compound 166, 8-(1-Aza-bicyclo[2.2.2]oct-2-en-3-yl)-3-benzyl-2,3,3a,4,5,6-hexahydro-1H-pyrazino[3,2,1-jk]carbazole] the EC50 was 6630 nM. OCCNC1CCCc2c1[nH]c1ccc(Br)cc21 (centres unmarked) [Compound 168, 2-(6-Bromo-2,3,4,9-tetrahydro-1H carbazol-1-ylamino)-ethanol hydrochloride] was tested, and the EC50 was 7720 nM. For CC(=O)N1CCn2c3c(c4cc(C)ccc42)CCCC31 (centres unmarked) [Compound 175, 1-(8-Methyl-1,2,3a,4,5,6-hexahydro-pyrazino[3,2,1-jk]carbazol-3-yl)-ethanone], the EC50 was > 10000 nM. For c1ccc(CN2CCn3c4c(c5ccccc53)CCCC42)cc1 (centres unmarked) [Compound 163, 3-Benzyl2,3,3a,4,5,6-hexahydro-1H-pyrazino[3,2,1-jk]carbazole], the EC50 was 1790 nM. Cc1ccc2c(c1)c1c3n2CCN(CC(C)O)C3CCC1 (centres unmarked) [Compound 176, 1-(8-Methyl-1,2,3a,4,5,6-hexahydro-pyrazino[3,2,1-jk]carbazoI-3-yl)-propan-2-ol] was tested, and the EC50 was > 10000 nM. In the case of CC(=O)N(Cc1ccccc1)C1CCCc2c1[nH]c1ccc(C)cc21 (centres unmarked) [Compound 174, N-Benzyl-N-(6-methyl-2,3,4,9-tetrahydro-1H-carbazol-1-yl)-acetamide], the EC50 is reported as > 10000 nM.

Same assay, conditions: Homo sapiens, compounds 1-155, hypoxic conditions (1% O2), VEGF protein by ELISA, read-out: ELISA Activity
With O=C(NC1CCCc2c1[nH]c1ccc(Br)cc21)Oc1ccccc1 (centres unmarked) [Compound 75, (6-Bromo-2,3,4,9-tetrahydro-1H-carbazol-1-yl)-carbamic acid phenyl ester] the EC50 was > 1000 nM.
